Laboratory results from the NIST ThermoML archive (doi:10.1021/je300775u).

Assay: xn = mol fraction of the nth substance listed
Details: 101 kPa, Liquid; for speed of sound: Pulse-echo method; for mass density: Vibrating tube method

ClCBr [bromochloromethane] + ClC(Cl)(Cl)Br
Details | mass density, 293.15 K [kg/m3] | mass density, 298.15 K [kg/m3] | mass density, 303.15 K [kg/m3] | mass density, 308.15 K [kg/m3] | mass density, 313.15 K [kg/m3] | speed of sound, 293.15 K [m/s] | speed of sound, 298.15 K [m/s] | speed of sound, 303.15 K [m/s] | speed of sound, 308.15 K [m/s] | speed of sound, 313.15 K [m/s]
x2 = 0 | 1933.23 | 1921.71 | 1910.15 | 1898.51 | 1886.82 | 1001.2 | 986.1 | 971 | 955.9 | 940.8
x2 = 0.052 | 1938.2 | 1926.72 | 1915.19 | 1903.6 | 1891.94 | 992.8 | 977.9 | 962.9 | 947.9 | 933
x2 = 0.103 | 1942.79 | 1931.34 | 1919.85 | 1908.3 | 1896.67 | 985.2 | 970.4 | 955.5 | 940.7 | 925.9
x2 = 0.1538 | 1947.34 | 1935.88 | 1924.46 | 1912.93 | 1901.44 | 978.4 | 963.6 | 948.9 | 934.2 | 919.1
x2 = 0.2031 | 1951.55 | 1940.16 | 1928.76 | 1917.27 | 1905.74 | 972.2 | 957.5 | 942.8 | 928.1 | 913.6
x2 = 0.2551 | 1956.05 | 1944.71 | 1933.31 | 1921.86 | 1910.36 | 966.1 | 951.6 | 937 | 922.6 | 908.1
x2 = 0.305 | 1960.19 | 1948.82 | 1937.49 | 1926.18 | 1914.72 | 960.7 | 946.3 | 931.8 | 917.3 | 903
x2 = 0.3522 | 1963.98 | 1952.66 | 1941.28 | 1929.99 | 1918.58 | 956.4 | 942.1 | 927.8 | 913.5 | 898.9
x2 = 0.4063 | 1968.54 | 1957.3 | 1946.02 | 1934.68 | 1923.3 | 950.8 | 936.7 | 922.4 | 908.2 | 894
x2 = 0.4553 | 1972.41 | 1961.2 | 1949.96 | 1938.65 | 1927.29 | 946.7 | 932.6 | 918.4 | 904.2 | 890.3
x2 = 0.5058 | 1976.4 | 1965.21 | 1954 | 1942.75 | 1931.42 | 942.7 | 928.6 | 914.5 | 900.5 | 886.5
x2 = 0.5665 | 1981.04 | 1969.89 | 1958.74 | 1947.52 | 1936.26 | 938.2 | 924.2 | 910.3 | 896.4 | 882.6
x2 = 0.6027 | 1983.79 | 1972.67 | 1961.52 | 1950.31 | 1939.1 | 935.8 | 921.9 | 908 | 894.1 | 880.3
x2 = 0.6567 | 1987.81 | 1976.74 | 1965.63 | 1954.45 | 1943.26 | 932.3 | 918.5 | 904.7 | 891 | 877.2
x2 = 0.7046 | 1991.31 | 1980.21 | 1969.15 | 1958.12 | 1946.95 | 929.6 | 915.8 | 902 | 888.3 | 874.7
x2 = 0.7543 | 1994.91 | 1983.88 | 1972.83 | 1961.75 | 1950.61 | 926.9 | 913.2 | 899.5 | 885.9 | 872.3
x2 = 0.8025 | 1998.2 | 1987.2 | 1976.2 | 1965.14 | 1954.05 | 924.5 | 910.8 | 897.2 | 883.7 | 870.2
x2 = 0.8516 | 2001.94 | 1990.96 | 1979.93 | 1968.92 | 1957.85 | 922.3 | 908.7 | 895.1 | 881.6 | 868.3
x2 = 0.8996 | 2005.35 | 1994.38 | 1983.39 | 1972.42 | 1961.38 | 920.3 | 906.8 | 893.3 | 879.9 | 866.5
x2 = 0.9228 | 2007.14 | 1996.17 | 1985.15 | 1974.22 | 1963.19 | 919.8 | 906.3 | 892.9 | 879.4 | 865.9

ClC(Cl)(Cl)Br [bromotrichloromethane] + BrCBr
Details | mass density, 293.15 K [kg/m3] | mass density, 298.15 K [kg/m3] | mass density, 303.15 K [kg/m3] | mass density, 308.15 K [kg/m3] | mass density, 313.15 K [kg/m3] | speed of sound, 293.15 K [m/s] | speed of sound, 298.15 K [m/s] | speed of sound, 303.15 K [m/s] | speed of sound, 308.15 K [m/s] | speed of sound, 313.15 K [m/s]
x1 = 0.0506 | 2455.57 | 2442.67 | 2429.69 | 2416.74 | 2403.73 | 957 | 944.4 | 931.7 | 919.1 | 906.4
x1 = 0.0993 | 2424.17 | 2411.4 | 2398.59 | 2385.75 | 2372.87 | 953 | 940.3 | 927.6 | 914.8 | 902.2
x1 = 0.1491 | 2392.98 | 2380.34 | 2367.61 | 2354.94 | 2342.21 | 948.9 | 936.2 | 923.4 | 910.7 | 898.1
x1 = 0.1991 | 2363.17 | 2350.66 | 2338.13 | 2325.48 | 2312.93 | 945.3 | 932.6 | 919.8 | 907.1 | 894.4
x1 = 0.2473 | 2335.59 | 2323.21 | 2310.8 | 2298.33 | 2285.84 | 942.1 | 929.3 | 916.5 | 903.7 | 891
x1 = 0.2986 | 2307.34 | 2295.08 | 2282.77 | 2270.45 | 2258.08 | 939.1 | 926.2 | 913.2 | 900.4 | 887.7
x1 = 0.3465 | 2281.89 | 2269.75 | 2257.58 | 2245.37 | 2233.11 | 936.3 | 923.3 | 910.5 | 897.6 | 884.8
x1 = 0.3979 | 2255.64 | 2243.64 | 2231.57 | 2219.48 | 2207.34 | 933.6 | 920.7 | 907.7 | 894.8 | 882
x1 = 0.4468 | 2231.41 | 2219.49 | 2207.52 | 2195.5 | 2183.5 | 931.3 | 918.3 | 905.3 | 892.4 | 879.5
x1 = 0.4967 | 2207.74 | 2195.91 | 2184.02 | 2172.16 | 2160.25 | 929.1 | 916.1 | 903.1 | 890.1 | 877.1
x1 = 0.5462 | 2185.38 | 2173.66 | 2161.9 | 2150.12 | 2138.31 | 927.2 | 914.1 | 901.1 | 888 | 875.1
x1 = 0.5975 | 2162.89 | 2151.29 | 2139.5 | 2128 | 2116.3 | 925.3 | 912.2 | 899.1 | 886.1 | 873.1
x1 = 0.6479 | 2141.49 | 2130.01 | 2118.46 | 2106.9 | 2095.25 | 923.7 | 910.6 | 897.4 | 884.4 | 871.4
x1 = 0.6947 | 2122.35 | 2110.96 | 2099.49 | 2087.96 | 2076.47 | 922.4 | 909.2 | 896 | 882.8 | 869.9
x1 = 0.7469 | 2101.9 | 2090.59 | 2079.21 | 2067.83 | 2056.41 | 921 | 907.7 | 894.5 | 881.4 | 868.4
x1 = 0.7959 | 2083.33 | 2072.08 | 2060.79 | 2049.47 | 2038.17 | 919.9 | 906.6 | 893.4 | 880.2 | 867.1
x1 = 0.8494 | 2063.55 | 2052.39 | 2041.21 | 2030.02 | 2018.79 | 918.8 | 905.5 | 892.2 | 879 | 865.9
x1 = 0.898 | 2046.2 | 2035.13 | 2024.04 | 2012.93 | 2001.78 | 918 | 904.6 | 891.3 | 878.1 | 865
x1 = 0.9469 | 2029.71 | 2018.65 | 2007.69 | 1996.65 | 1985.57 | 917.4 | 904 | 890.6 | 877.3 | 864.1
x1 = 1 | 2013.06 | 2002.14 | 1991.2 | 1980.24 | 1969.25 | 917.1 | 903.6 | 890.2 | 876.8 | 863.6
